Among the test systems are NCI-H460; OVCAR-8; M14; T47D; MCF7; BT-549; Hs-578T; HL-60; MDA-MB-435; SR; HT-29; SNB-19; EKVX; CCRF-CEM; Malme-3M; KM12; UACC-62; OVCAR-3; TK-10.
Assay in all cases: DTP human tumour cell line panel, 48 h

SMILES strings stand for the structures.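 1) Cells in 96-well plates. 2) Compound, 48 h, 5 concentrations. 3) Linear interpolation between surrounding doses. 4) Unreached endpoint = highest concentration. At the GI50, growth is halved.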 Calls of active or inactive are those of the source. No stated cut-off is given here; in the data, active = GI50 up to about 1.1 µM and inactive = higher.

As to `O=C(CCSC(CC(=O)c1ccc(Cl)cc1)c1ccc(Cl)cc1)Nc1ccc(Cl)cc1` (stereo not drawn), the GI50 is 10.2 µM (inactive) with NCI-H460; 14.9 µM (inactive) in the assay with OVCAR-8; 14.4 µM (inactive) in the assay with M14; 6.03 µM (inactive) in the assay with T47D; 3.72 µM (inactive) in the assay with MCF7; 13.5 µM (inactive) in the assay with BT-549. Further, the GI50 in the assay on Hs-578T was 26.3 µM (inactive); in the assay with HL-60 it was 4.1 µM (inactive); in the assay with MDA-MB-435, 12.3 µM (inactive); in the assay on SR it was 2.91 µM (inactive); in the assay with HT-29, 9.23 µM (inactive); in the assay on SNB-19 it was 13.7 µM (inactive). The GI50 in the assay on EKVX is 12.7 µM (inactive); in the assay on CCRF-CEM, 2.09 µM (inactive); in the assay on Malme-3M, 16.9 µM (inactive); in the assay with KM12 it was 3.21 µM (inactive); in the assay on UACC-62, 10.2 µM (inactive); with OVCAR-3, 14.1 µM (inactive). For the same compound, in the assay with TK-10, the GI50 was 14.6 µM (inactive).
For `COc1cc(OCc2ccc3nc(-c4ccccc4)c(N)nc3c2)cc(OC)c1OC`, the GI50 with NCI-H460 is 18.7 µM (inactive); in the assay with OVCAR-8, 27.8 µM (inactive); in the assay on M14, 15.8 µM (inactive); in the assay on T47D, 14.4 µM (inactive); in the assay with MCF7 it was 22 µM (inactive); in the assay on BT-549, 16.1 µM (inactive). Besides, the GI50 in the assay on Hs-578T was 21.2 µM (inactive); in the assay on HL-60, 12.4 µM (inactive); with MDA-MB-435 it was 19.1 µM (inactive); in the assay on SR, 17.9 µM (inactive); in the assay with SNB-19 it was 24.2 µM (inactive); with EKVX, 19.7 µM (inactive). Moreover, the GI50 with CCRF-CEM is 16.7 µM (inactive); in the assay on Malme-3M, 13.4 µM (inactive); with KM12, 18.6 µM (inactive); in the assay on UACC-62, 13.4 µM (inactive); in the assay on OVCAR-3, 16.4 µM (inactive); with TK-10 it was 24.1 µM (inactive).
With `Oc1ccc(-c2cc(-c3cc(-c4ccc(O)cc4)no3)on2)cc1`, the GI50 in the assay on NCI-H460 is 41.6 µM (inactive); with OVCAR-8 it was > 100 µM (inactive); in the assay with M14, > 32.4 µM (inactive); in the assay on T47D it was 33.1 µM (inactive); with MCF7, 34.2 µM (inactive); with BT-549, 17.8 µM (inactive). Further, the GI50 in the assay with Hs-578T is > 100 µM (inactive); in the assay on HL-60 it was 3.36 µM (inactive); in the assay with MDA-MB-435, > 100 µM (inactive); in the assay with SR it was 19.1 µM (inactive); with HT-29 it was > 100 µM (inactive); in the assay with SNB-19, > 100 µM (inactive). Further, the GI50 with EKVX was 26.5 µM (inactive); with CCRF-CEM it was 0.873 µM (active); in the assay on Malme-3M, 46.1 µM (inactive); in the assay with KM12, 11.8 µM (inactive); in the assay with UACC-62 it was 1.16 µM (inactive); in the assay on OVCAR-3 it was > 100 µM (inactive). For the same compound, in the assay on TK-10, the GI50 is > 100 µM (inactive).
In the case of `CN(C)c1ccc(/N=N\c2cccc3ncccc23)cc1`, the GI50 in the assay with NCI-H460 is 26.6 µM (inactive); with OVCAR-8, > 100 µM (inactive); in the assay on M14, 61.7 µM (inactive); with T47D, 1.89 µM (inactive); with MCF7, 0.063 µM (active); with BT-549, 65.5 µM (inactive). Besides, the GI50 was 44.7 µM (inactive) in the assay with Hs-578T; 12.8 µM (inactive) in the assay with HL-60; 29.4 µM (inactive) in the assay with MDA-MB-435; 55 µM (inactive) in the assay on SR; 39 µM (inactive) in the assay with HT-29; > 58.1 µM (inactive) with SNB-19. Further, the GI50 in the assay on EKVX is 11.7 µM (inactive); in the assay with CCRF-CEM, 51.3 µM (inactive); in the assay with Malme-3M it was > 90.8 µM (inactive); with KM12 it was 33.6 µM (inactive); with UACC-62 it was 97.5 µM (inactive); in the assay on OVCAR-3 it was 22.9 µM (inactive). The GI50 in the assay with TK-10 was 0.0425 µM (active).
Turning to `CCN1C(=O)CS/C1=N\NC(=O)CSc1nc2ccccc2c(=O)n1CC`, the GI50 with NCI-H460 is 10.3 µM (inactive); in the assay with OVCAR-8, > 100 µM (inactive); in the assay on M14 it was > 100 µM (inactive); in the assay on T47D, > 100 µM (inactive); in the assay on MCF7, > 100 µM (inactive); with BT-549, > 100 µM (inactive). For the same compound, the GI50 in the assay with Hs-578T is > 100 µM (inactive); with HL-60 it was 96.4 µM (inactive); in the assay with MDA-MB-435, > 100 µM (inactive); with SR, > 100 µM (inactive); with SNB-19 it was > 100 µM (inactive); in the assay with EKVX, > 100 µM (inactive). Moreover, the GI50 with CCRF-CEM, with Malme-3M, with KM12, in the assay with UACC-62, in the assay on OVCAR-3 and with TK-10 was > 100 µM (inactive) each time.
Consider `COC1(OC)c2occc2C(=N)c2ccc(=O)oc21`, for which the GI50 in the assay with NCI-H460 is > 100 µM (inactive); in the assay on M14, > 100 µM (inactive); in the assay on T47D, > 100 µM (inactive); in the assay on MCF7, 81.8 µM (inactive); in the assay on BT-549 it was > 100 µM (inactive); with Hs-578T, > 100 µM (inactive). In addition, the GI50 in the assay on HL-60 is 45.8 µM (inactive); with MDA-MB-435 it was > 100 µM (inactive); in the assay on SR, 71.8 µM (inactive); in the assay with HT-29, > 100 µM (inactive); in the assay on SNB-19, > 100 µM (inactive); with EKVX, > 100 µM (inactive). Besides, the GI50 in the assay with CCRF-CEM is 85.9 µM (inactive); in the assay with Malme-3M, 18.2 µM (inactive); in the assay on UACC-62, > 100 µM (inactive); in the assay on OVCAR-3 it was 77.8 µM (inactive); with TK-10, > 100 µM (inactive).
For `COc1cc2c3c(n(Cc4ccccc4)c(=O)c2cc1OC)-c1ccccc1C3=O`, the GI50 in the assay with NCI-H460 is 26.7 µM (inactive); with OVCAR-8 it was > 100 µM (inactive); in the assay with M14 it was > 100 µM (inactive); in the assay on T47D, > 100 µM (inactive); with MCF7, > 100 µM (inactive); with BT-549, > 100 µM (inactive). Also, the GI50 with Hs-578T was 63.7 µM (inactive); with HL-60, > 100 µM (inactive); with MDA-MB-435, > 100 µM (inactive); in the assay with SR, 4.1 µM (inactive); with HT-29, > 100 µM (inactive); in the assay on SNB-19, > 100 µM (inactive). The GI50 is > 100 µM (inactive) in the assay with EKVX; 17.9 µM (inactive) in the assay on CCRF-CEM; > 100 µM (inactive) in the assay on Malme-3M; > 100 µM (inactive) in the assay with KM12; > 100 µM (inactive) in the assay with UACC-62; > 100 µM (inactive) with OVCAR-3. The GI50 with TK-10 is > 100 µM (inactive).
`Cc1cc(C)c2c(n1)S(=O)(=O)N(CCCN1CCN(c3cccc(Cl)c3)CC1)C(C(=O)c1ccccc1)=C2O`: the GI50 in the assay on NCI-H460 is 18.5 µM (inactive); in the assay with OVCAR-8, 36.6 µM (inactive); in the assay with M14, 25.6 µM (inactive); with T47D, 38.8 µM (inactive); with MCF7, 29.8 µM (inactive); in the assay on BT-549, 52.6 µM (inactive). For the same compound, the GI50 was 65.8 µM (inactive) in the assay with Hs-578T; 31.6 µM (inactive) in the assay on HL-60; 27 µM (inactive) in the assay with MDA-MB-435; 17.1 µM (inactive) in the assay on SR; 30.8 µM (inactive) in the assay on HT-29; 30.2 µM (inactive) in the assay on SNB-19. In addition, the GI50 is 26 µM (inactive) with EKVX; 25.9 µM (inactive) in the assay with CCRF-CEM; 64.3 µM (inactive) with Malme-3M; 33.7 µM (inactive) with KM12; 36.1 µM (inactive) in the assay with UACC-62; 22.8 µM (inactive) with OVCAR-3. Moreover, in the assay on TK-10, the GI50 is 27 µM (inactive).
On to `O=C(O)CCCC(=O)Nn1c(Cc2ccc(Cl)cc2)n[nH]c1=O`, for which the GI50 with OVCAR-8, in the assay on M14, in the assay with T47D, in the assay with MCF7, in the assay on BT-549 and with Hs-578T was > 100 µM (inactive) each time. Further, the GI50 in the assay with HL-60 was 26.9 µM (inactive); in the assay on MDA-MB-435, > 100 µM (inactive); with SR it was > 100 µM (inactive); in the assay on HT-29, > 100 µM (inactive); in the assay on EKVX, > 100 µM (inactive); with CCRF-CEM, > 100 µM (inactive). Besides, the GI50 in the assay with Malme-3M, with KM12, in the assay with UACC-62, in the assay on OVCAR-3 and in the assay on TK-10 was > 100 µM (inactive) each time.
For `Cc1ccc(CNNC(=O)c2cc[n+]([BH2-]C#N)cc2)cc1`, the GI50 was > 100 µM (inactive) with NCI-H460; > 100 µM (inactive) with OVCAR-8; > 100 µM (inactive) in the assay with M14; > 100 µM (inactive) in the assay on T47D; 18.1 µM (inactive) with MCF7; > 100 µM (inactive) in the assay on BT-549. Also, the GI50 with Hs-578T is 48.5 µM (inactive); in the assay with HL-60, 83.8 µM (inactive); in the assay on MDA-MB-435, > 100 µM (inactive); with SR, > 100 µM (inactive); in the assay on HT-29, > 100 µM (inactive); in the assay with SNB-19, > 100 µM (inactive). Besides, the GI50 in the assay with EKVX is 87.7 µM (inactive); in the assay on CCRF-CEM, 26.3 µM (inactive); in the assay with Malme-3M, > 100 µM (inactive); in the assay with KM12 it was > 100 µM (inactive); in the assay on UACC-62, 17.1 µM (inactive); with OVCAR-3, > 100 µM (inactive). In the assay with TK-10, the GI50 is > 100 µM (inactive).
On to `O=C1c2ccccc2-n2c1nc1ccc([N+](=O)[O-])cc1c2=O`, for which the GI50 with NCI-H460 is > 100 µM (inactive); in the assay with OVCAR-8 it was 21.3 µM (inactive); in the assay with M14, 91.8 µM (inactive); in the assay with T47D, 25.9 µM (inactive); with MCF7 it was 11.7 µM (inactive); in the assay on BT-549, > 100 µM (inactive). The GI50 with Hs-578T is > 100 µM (inactive); in the assay on HL-60 it was 13.9 µM (inactive); with MDA-MB-435, > 10 µM (inactive); with SR, 28.8 µM (inactive); in the assay on HT-29, > 10 µM (inactive); in the assay with SNB-19, > 100 µM (inactive). For the same compound, the GI50 in the assay on EKVX is 93.1 µM (inactive); with CCRF-CEM, 34.8 µM (inactive); with Malme-3M, 51.5 µM (inactive); with KM12, 68.9 µM (inactive); with UACC-62, 44.2 µM (inactive); in the assay with OVCAR-3, 21.1 µM (inactive). Also, the GI50 in the assay on TK-10 was > 100 µM (inactive).

The values above are taken from ChEMBL document CHEMBL1201862, “PubChem BioAssay data set” (2004).
